Experimental data published in patent US6407114B1, “Pyrazolopyrimidinone CGMP PDE5 inhibitors for the treatment of sexual dysfunction” (Pfizer Inc., priority 1998, dated 2002).

Molecular target: cGMP PDE5 (UniProt O76074)
Assay: In vitro PDE inhibitory activity against cGMP PDE5
Format: biochemical
Details: in vitro inhibition of cGMP PDE5
Experimental: In vitro PDE inhibitory activities against cyclic guanosine 3′,5′-monophosphate (cGMP) and cyclic adenosine 3′,5′-monophosphate (cAMP) phosphodiesterases were determined by measurement of their IC50 values (the concentration of compound required for 50% inhibition of enzyme activity).
The required PDE enzymes were isolated from a variety of sources, including human corpus cavernosum, human and rabbit platelets, human cardiac ventricle, human skeletal muscle and bovine retina, essentially by the method of W. J. Thompson and M. M. Appleman (Biochem., 1971, 10, 311). In particular, the cGMP-specific PDE (PDE5) and the cGMP-inhibited cAMP PDE (PDE3) were obtained from human corpus cavernosum tissue, human platelets or rabbit platelets; the cGMP-stimulated PDE (PDE2) was obtained from human corpus cavernosum; the calcium/calmodulin (Ca/CAM)-dependent PDE (PDE1) from human cardiac ventricle; the cAMP-specific PDE (PDE4) from human skeletal muscle; and the photoreceptor PDE (PDE6) from bovine retina.
Assays were performed using a modification of the “batch” method of W. J. Thompson et al. (Biochem., 1979, 18, 5228).

| SMILES | IC50 |
| --- | --- |
| CCCOc1ccc(S(=O)(=O)N2CCN(CC)CC2)cc1-c1nc2c(c(Cc3ccccn3)nn2CCC)c(=O)[nH]1 [Example 1, 6-[5-(4-Ethylpiperazin-1-ylsulphonyl)-2-n-propoxyphenyl]-1-n-propyl-3-(pyridin-2-yl)methyl-1,5-dihydro-4H-pyrazolo[3,4-d]pyrimidin-4-one] | 9.3 nM |
| CCOc1ncc(S(=O)(=O)N2CCN(CC)CC2)cc1-c1nc2c(c(-c3ccccc3)nn2CC)c(=O)[nH]1 [Example 21, 6-[2-Ethoxy-5-(4-ethylpiperazin-1-ylsulphonyl)pyridin-3-yl]-1-ethyl-3-phenyl-1,5-dihydro-4H-pyrazolo[3,4-d]pyrimidin-4-one] | 4.6 nM |
| CCCn1nc(-c2cnccn2)c2c(=O)[nH]c(-c3cc(S(=O)(=O)N4CCN(CC)CC4)cnc3OCC)nc21 [Example 19, 6-[2-Ethoxy-5-(4-ethylpiperazin-1-ylsulphonyl)pyridin-3-yl]-1-n-propyl-3-(pyrazin-2-yl)-1,5-dihydro-4H-pyrazolo[3,4-d]pyrimidin-4-one] | 7.67 nM |

The remaining compounds from weak to strong by IC50, led by results:

| IC50 | SMILES |
| --- | --- |
| 8.1 nM | CCOc1ncc(S(=O)(=O)N2CCN(CC)CC2)cc1-c1nc2c(c(-c3cnccn3)nn2CC)c(=O)[nH]1 [Example 18, 6-[2-Ethoxy-5-(4-ethylpiperazin-1-ylsulphonyl)pyridin-3-yl]-1-ethyl-3-(pyrazin-2-yl)-1,5-dihydro-4H-pyrazolo[3,4-d]pyrimidin-4-one] |
| 5.61 nM | CCCn1nc(Cc2ccccc2)c2c(=O)[nH]c(-c3cc(S(=O)(=O)N4CCN(C)CC4)ccc3OCC)nc21 [Example 4, 3-Benzyl-6-[2-ethoxy-5-(4-methylpiperazin-1-ylsulphonyl)phenyl]-1-n-propyl-1,5-dihydro-4H-pyrazolo[3,4-d]pyrimidin-4-one] |
| 4.4 nM | CCCOc1ccc(S(=O)(=O)N2CCN(C)CC2)cc1-c1nc2c(c(C)nn2Cc2ccccn2)c(=O)[nH]1 [Example 14, 3-Methyl-6-[5-(4-methylpiperazin-1-ylsulphonyl)-2-n-propoxyphenyl]-1-(pyridin-2-yl)methyl-1,5-dihydro-4H-pyrazolo[3,4-d]pyrimidin-4-one] |
